Reference: patent publication US10646488B2 (Araxes Pharma LLC, priority 2016, dated 2020)

target: T1, KRAS G12C 1-169, his-tagged protein, GDP-loaded (Homo sapiens, UniProt P01116, G12C); assay: Covalent binding (% modification) to KRAS G12C by mass spectrometry; settings: covalent binding to KRAS G12C after a ten minute incubation period; further: test concentration or dose not given here
T1 construct: KRAS G12C 1-169, his-tagged protein, GDP-loaded

Structure (SMILES) | Binding %
C=CC(=O)N1C[C@H](C)N(c2nc(OCCN(CC)CC)nc3c(F)c(-c4c(O)cccc4F)c(Cl)cc23)C[C@H]1C [Compound 48, 1-((2R,5S)-4-(6-chloro-2-(2-(diethylamino)ethoxy)-8-fluoro-7-(2-fluoro-6-hydroxyphenyl)quinazolin-4-yl)-2,5-dimethyl-piperazin-1-yl) prop-2-en-1-one] | ++ (++ indicates binding activity from 50 to 90%)
C=CC(=O)N1[C@H](C)CN(c2nc(OCCc3ccccn3)nc3c(F)c(-c4c(O)cccc4F)c(Cl)cc23)C[C@@H]1C [Compound 36, 1-((2R,6S)-4-(6-chloro-8-fluoro-7-(2-fluoro-6-hydroxyphenyl)-2-(2-(pyridin-2-yl)ethoxy)quinazolin-4-yl)-2,6-dimethyl-piperazin-1-yl) prop-2-en-1-one] | ++ (++ indicates binding activity from 50 to 90%)
C=CC(=O)N1C[C@H](C)N(c2nc(O)nc3c(F)c(-c4c(O)cccc4F)c(Cl)cc23)C[C@H]1C [Compound 51, 1-((2R,5S)-4-(6-chloro-8-fluoro-7-(2-fluoro-6-hydroxyphenyl)-2-hydroxy-quinazolin-4-yl)-2,5-dimethyl-piperazin-1-yl) prop-2-en-1-one] | + (+ indicates binding activity up to 50%)
C=CC(=O)N1C[C@@H](C)N(c2nc(NC3CCN(C4CC4)CC3)nc3c(F)c(-c4c(C)ccc5[nH]ncc45)c(Cl)cc23)[C@@H](C)C1 [Compound 42, 1-((3S,5R)-4-(6-chloro-2-((1-cyclopropyl-piperidin-4-yl)amino)-8-fluoro-7-(5-methyl-1H-indazol-4-yl)quinazolin-4-yl)-3,5-dimethyl-piperazin-1-yl) prop-2-en-1-one] | ++ (++ indicates binding activity from 50 to 90%)
C=CC(=O)N1C[C@@H](C)N(c2nc(N3CC(CO)C3)nc3c(F)c(-c4c(O)cccc4F)c(Cl)cc23)[C@@H](C)C1 [Compound 64, 1-((3R,5S)-4-(6-chloro-8-fluoro-7-(2-fluoro-6-hydroxyphenyl)-2-(3-(hydroxy-methyl)azetidin-1-yl)quinazolin-4-yl)-3,5-dimethyl-piperazin-1-yl) prop-2-en-1-one] | ++ (++ indicates binding activity from 50 to 90%)
C=CC(=O)N1CCN(c2nc(N3CC(N(C)C)C3)nc3c(F)c(-c4c(C)ccc5cn[nH]c45)c(Cl)cc23)C[C@H]1C [Compound 69, 1-((2R)-4-(6-chloro-2-(3-(dimethylamino)azetidin-1-yl)-8-fluoro-7-(6-methyl-1H-indazol-7-yl)quinazolin-4-yl)-2-methyl-piperazin-1-yl) prop-2-en-1-one] | +++ (+++ indicates binding activity greater than 90%)
C=CC(=O)N1[C@H](C)CN(c2nc(N3CC(N(C)C)C3)nc3c(F)c(-c4c(C)ccc5[nH]ncc45)c(Cl)cc23)C[C@@H]1C [Compound 39, 1-((2R,6S)-4-(6-chloro-2-(3-(dimethylamino)azetidin-1-yl)-8-fluoro-7-(5-methyl-1H-indazol-4-yl)quinazolin-4-yl)-2,6-dimethyl-piperazin-1-yl) prop-2-en-1-one] | ++ (++ indicates binding activity from 50 to 90%)

same assay, conditions: covalent binding to KRAS G12C after a three minute incubation period

Structure (SMILES) | Binding %
C=CC(=O)N1C[C@H](C)N(c2nc(N3CC(N(C)C(C)C)C3)nc3c(F)c(-c4c(C)ccc5cn[nH]c45)c(Cl)cc23)C[C@H]1C [Compound 122, 1-((2R,5S)-4-(6-chloro-8-fluoro-2-(3-(isopropyl (methyl)amino)azetidin-1-yl)-7-(6-methyl-1H-indazol-7-yl)quinazolin-4-yl)-2,5-dimethyl-piperazin-1-yl) prop-2-en-1-one] | ++ (++ indicates binding activity from 50 to 90%)
C=CC(=O)N1C[C@H](C)N(c2nc(N3CC(N)C3)nc3c(F)c(-c4c(O)cccc4F)c(Cl)cc23)C[C@H]1C [Compound 92] | ++ (++ indicates binding activity from 50 to 90%)
C=CC(=O)N1C[C@H](C)N(c2nc(N3CC(C)(N(C)C)C3)nc3c(F)c(-c4c(O)cccc4F)c(Cl)cc23)C[C@H]1C [Compound 104, 1-((2R,5S)-4-(6-chloro-2-(3-(dimethylamino)-3-methylazetidin-1-yl)-8-fluoro-7-(2-fluoro-6-hydroxyphenyl)quinazolin-4-yl)-2,5-dimethyl-piperazin-1-yl) prop-2-en-1-one] | +++ (+++ indicates binding activity greater than 90%)
C=CC(=O)N1C[C@H](C)N(c2nc(N3CC4(CCCN(C5CC5)C4)C3)nc3c(F)c(-c4c(O)cccc4F)c(Cl)cc23)C[C@H]1C [Compound 195, 1-((2R,5S)-4-(6-chloro-2-(6-cyclopropyl-2,6-diazaspiro[3.5]nonan-2-yl)-8-fluoro-7-(2-fluoro-6-hydroxyphenyl)quinazolin-4-yl)-2,5-dimethyl-piperazin-1-yl) prop-2-en-1-one] | + (+ indicates binding activity greater than 0% and up to 50%)
C=CC(=O)N1C[C@H](C)N(c2nc(N3CC(N(CC)C4CC4)C3)nc3c(F)c(-c4c(C)ccc5cn[nH]c45)c(Cl)cc23)C[C@H]1C [Compound 116, 1-((2R,5S)-4-(6-chloro-2-(3-(cyclopropyl (ethyl)amino)azetidin-1-yl)-8-fluoro-7-(6-methyl-1H-indazol-7-yl)quinazolin-4-yl)-2,5-dimethyl-piperazin-1-yl) prop-2-en-1-one] | ++ (++ indicates binding activity from 50 to 90%)
C=CC(=O)N1C[C@H](C)N(c2nc(N3CC(N(C)C4CC4)C3)nc3c(F)c(-c4c(C)ccc5cn[nH]c45)c(Cl)cc23)C[C@H]1C [Compound 133, 1-((2R,5S)-4-(6-chloro-2-(3-(cyclopropyl (methyl)amino)azetidin-1-yl)-8-fluoro-7-(6-methyl-1H-indazol-7-yl)quinazolin-4-yl)-2,5-dimethyl-piperazin-1-yl) prop-2-en-1-one] | ++ (++ indicates binding activity from 50 to 90%)
C=CC(=O)N1C[C@H](C)N(c2nc(N3CC4(COC4)C3)nc3c(F)c(-c4c(O)cccc4F)c(Cl)cc23)C[C@H]1C [Compound 192, 1-((2R,5S)-4-(6-chloro-8-fluoro-7-(2-fluoro-6-hydroxyphenyl)-2-(2-oxa-6-azaspiro[3.3]heptan-6-yl)quinazolin-4-yl)-2,5-dimethyl-piperazin-1-yl) prop-2-en-1-one] | ++ (++ indicates binding activity from 50 to 90%)
C=CC(=O)N1C[C@H](C)N(c2nc(Oc3cnn(C)c3)nc3c(F)c(-c4cc(O)cc5ccccc45)c(Cl)cc23)C[C@H]1C [Compound 216, 1-((2R,5S)-4-(6-chloro-8-fluoro-7-(3-hydroxy-naphthalen-1-yl)-2-(1-methyl-1H-pyrazol-4-yloxy)quinazolin-4-yl)-2,5-dimethyl-piperazin-1-yl) prop-2-en-1-one] | ++ (++ indicates binding activity from 50 to 90%)
C=CC(=O)N1CCN(c2nc(CNCc3ncccn3)nc3c(F)c(-c4c(O)cccc4F)c(Cl)cc23)C[C@H]1C [Compound 95, 1-((2R)-4-(6-chloro-8-fluoro-7-(2-fluoro-6-hydroxyphenyl)-2-(((pyrimidin-2-ylmethyl)amino)methyl)quinazolin-4-yl)-2-methyl-piperazin-1-yl) prop-2-en-1-one] | ++ (++ indicates binding activity from 50 to 90%)
C=CC(=O)N1C[C@H](C)N(c2nc(N3CC(N(C)C)C3)nc3c(F)c(-c4cc5ccccc5cc4O)c(Cl)cc23)C[C@H]1C [Compound 146, 1-((2R,5S)-4-(6-chloro-2-(3-(dimethylamino)azetidin-1-yl)-8-fluoro-7-(3-hydroxynaphthalen-2-yl)quinazolin-4-yl)-2,5-dimethyl-piperazin-1-yl) prop-2-en-1-one] | + (+ indicates binding activity greater than 0% and up to 50%)
C=CC(=O)N1C[C@H](C)N(c2nc(N3CC4(CCN(C5CC5)C4)C3)nc3c(F)c(-c4c(O)cccc4F)c(Cl)cc23)C[C@H]1C [Compound 149, 1-((2R,5S)-4-(6-chloro-2-(6-cyclopropyl-2,6-diazaspiro[3.4]octan-2-yl)-8-fluoro-7-(2-fluoro-6-hydroxyphenyl)quinazolin-4-yl)-2,5-dimethyl-piperazin-1-yl) prop-2-en-1-one] | ++ (++ indicates binding activity from 50 to 90%)
C=CC(=O)N1C[C@H](C)N(c2nc(Oc3cnn(C)c3)nc3c(F)c(-c4c(C)ccc5[nH]ncc45)c(Cl)cc23)C[C@H]1C [Compound 217, 1-((2R,5S)-4-(6-chloro-8-fluoro-7-(5-methyl-1H-indazol-4-yl)-2-(1-methyl-1H-pyrazol-4-yloxy)quinazolin-4-yl)-2,5-dimethyl-piperazin-1-yl) prop-2-en-1-one] | ++ (++ indicates binding activity from 50 to 90%)
C=CC(=O)N1C[C@H](C)N(c2nc(N3CC(N(C)C)C3)nc3c(F)c(-c4c(C)ccc5[nH]ncc45)c(Cl)cc23)C[C@H]1C (atropisomer, axis not shown) [Compound 131, 1-((2R,5S)-4-(6-chloro-2-(3-(dimethylamino)azetidin-1-yl)-8-fluoro-7-((S)-5-methyl-1H-indazol-4-yl)quinazolin-4-yl)-2,5-dimethyl-piperazin-1-yl) prop-2-en-1-one] | + (+ indicates binding activity greater than 0% and up to 50%)
[2H]C([2H])([2H])N(C1CN(c2nc(N3C[C@@H](C)N(C(=O)C=C)C[C@@H]3C)c3cc(Cl)c(-c4c(O)cccc4F)c(F)c3n2)C1)C([2H])([2H])[2H] (atropisomer, axis not shown) [Compound 207, 1-((2R,5S)-4-(2-(3-(bis(triduetero-methyl)amino)azetidin-1-yl)-6-chloro-8-fluoro-7-((S)-2-fluoro-6-hydroxyphenyl)quinazolin-4-yl)-2,5-dimethyl-piperazin-1-yl) prop-2-en-1-one] | +++ (+++ indicates binding activity greater than 90%)
C=CC(=O)N1C[C@H](C)N(c2nc(N3CC(N(C)C)C3)nc3c(F)c(-c4c(C)ccc5cn[nH]c45)c(Cl)cc23)C[C@H]1C [Compound 187, 1-((2R,5S)-4-(6-chloro-2-(3-(dimethylamino)azetidin-1-yl)-8-fluoro-7-(6-methyl-1H-indazol-7-yl)quinazolin-4-yl)-2,5-dimethyl-piperazin-1-yl) prop-2-en-1-one] | +++ (+++ indicates binding activity greater than 90%)
